Data taken from the supplement of paper PMC10331698.
± gives the standard deviation of the averaged measurements.

Assays:
Test in all cases: LOEC (log10 uM (lowest observed effect concentration))
[1] = compound: OCCCC(F)(F)C(F)(F)C(F)(F)C(F)(F)C(F)(F)C(F)(F)C(F)(F)F [7:3 Fluorotelomer alcohol]
Experimental: (§1)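 BioMAP Diversity Plus panel in human primary cell co-cultures, 4 concentrations in duplicate blinded samples. Responses are log10 fold change versus DMSO control, processed with tcpl v2.1.0. A hit is called when responses at any concentration exceed the cutoff (the larger of 3*bmad or log10(1.2)); the lowest observed effect concentration (modl_ga, log10 uM) is reported for hits.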

[2] = compound: OCCC(F)(F)C(F)(F)C(F)(F)C(F)(F)C(F)(F)C(F)(F)F [6:2 Fluorotelomer alcohol]
Experimental: as §1

[3] = compound: C[N+](C)(C)CCCNS(=O)(=O)C(F)(F)C(F)(F)C(F)(F)C(F)(F)C(F)(F)C(F)(F)C(F)(F)C(F)(F)F [Perfluorooctanesulfonamido ammonium iodide]
Experimental: as §1

Perfluorodecanoic acid = compound: O=C(O)C(F)(F)C(F)(F)C(F)(F)C(F)(F)C(F)(F)C(F)(F)C(F)(F)C(F)(F)C(F)(F)F [Perfluorodecanoic acid]
Experimental: as §1

[4] = compound: CCN(CCO)S(=O)(=O)C(F)(F)C(F)(F)C(F)(F)C(F)(F)C(F)(F)C(F)(F)C(F)(F)C(F)(F)F [N-Ethyl-N-(2-hydroxyethyl)perfluorooctanesulfonamide]
Experimental: as §1

Test System	LOEC (log10 uM) [1]	LOEC (log10 uM) [2]	LOEC (log10 uM) [3]	LOEC (log10 uM) (Perfluorodecanoic acid)	LOEC (log10 uM) [4]
hDFCGF IL8 down	1.3	1.78	1.78	1.78	–
3C MCP1 down	1.54 ± 0.34	1.78	–	1.78	1.3
MyoF IL8 down	–	–	–	–	0.845
LPS SRB down	1.78	–	1.78	1.78	1.54 ± 0.34
BT xIL17A down	1.3	–	1.78	–	1.3
4H VEGFRII down	1.78	–	–	1.78	–
KF3CT PAI1 down	1.3	–	1.78	1.3	0.845
LPS TNFa down	1.54 ± 0.34	–	1.3	1.78	–
hDFCGF TIMP2 down	1.3	1.78	–	1.3	–
3C Eselectin down	1.54 ± 0.34	–	–	1.78	–
BE3C IL1a down	1.78	–	–	1.3	1.54 ± 0.34
CASM3C VCAM1 down	1.3	–	–	1.78	1.07 ± 0.32
CASM3C HLADR down	1.54 ± 0.34	–	–	–	1.54 ± 0.34
LPS MCP1 down	1.54 ± 0.34	–	–	1.78	1.78
BE3C PAI1 down	1.78	–	–	1.3	1.78
KF3CT uPA down	1.54 ± 0.34	–	–	1.78	1.78
BT xIL2 down	1.3	–	1.78	–	1.3
hDFCGF MCSF up	–	–	1.78	–	–
SAg MCP1 down	1.54 ± 0.34	–	–	1.78	1.54 ± 0.34
BT xIL6 down	1.3	–	–	–	1.78
SAg IL8 down	1.54 ± 0.34	–	–	1.78	–

Test System	LOEC (log10 uM) [1]	LOEC (log10 uM) [2]	LOEC (log10 uM) [3]	LOEC (log10 uM) (Perfluorodecanoic acid)	LOEC (log10 uM) [4]
LPS TissueFactor down	1.78	–	–	1.78	–
MyoF bFGF down	1.78	–	1.78	1.78	–
3C MIG down	1.78	1.78	–	1.78	–
KF3CT MMP9 down	1.3	–	1.78	1.07 ± 0.32	1.54 ± 0.34
BE3C ITAC down	1.78	–	–	1.3	1.78
BF4T MMP3 up	–	–	1.78	–	1.78
BE3C MMP9 down	1.78	–	–	1.3	1.54 ± 0.34
IMphg IL8 down	–	–	1.54 ± 0.34	–	–
KF3CT IL1a down	1.54 ± 0.34	–	–	1.78	1.3
IMphg ESelectin down	–	–	–	1.78	–
BF4T MMP1 down	–	–	–	1.3	–
IMphg MIP1a down	–	–	1.78	1.78	–
3C IL8 down	1.78	–	1.78	1.78	–
CASM3C PAI1 down	1.78	–	–	–	–
4H VCAM1 down	1.78	–	–	1.78	–
LPS Eselectin down	1.78	–	–	1.78	–
CASM3C MIG down	1.3	–	–	–	1.3
4H Pselectin down	1.78	–	1.78	1.78	1.54 ± 0.34
KF3CT MIG down	1.54 ± 0.34	–	–	1.78	1.78
BE3C tPA down	1.78	–	1.78	1.3	–
LPS Thrombomodulin up	–	–	–	–	0.573 ± 0.39

Test System	LOEC (log10 uM) [1]	LOEC (log10 uM) [2]	LOEC (log10 uM) [3]	LOEC (log10 uM) (Perfluorodecanoic acid)	LOEC (log10 uM) [4]
BF4T tPA up	–	–	–	–	1.78
LPS IL8 down	1.78	–	1.3	1.78	–
IMphg VCAM1 down	–	–	1.54 ± 0.34	1.78	–
BE3C uPAR down	1.78	–	–	1.3	1.78
BF4T VCAM1 down	1.78	–	–	1.3	–
BT xTNFa down	1.3	1.78	1.54 ± 0.34	–	1.3
SAg CD40 down	1.78	–	1.78	1.78	1.78
hDFCGF CollagenIII down	1.3	–	1.07 ± 0.32	1.78	–
BF4T CD90 down	1.78	–	–	1.3	–
BF4T IL8 down	1.78	–	–	–	–
IMphg SRB down	1.78	–	1.78	1.78	1.78
hDFCGF TIMP1 down	1.3	1.78	–	1.78	–
MyoF TIMP1 down	1.78	–	–	1.78	–
BE3C EGFR down	1.78	–	–	–	1.78
BF4T SRB down	1.78	–	–	1.3	–
CASM3C LDLR up	–	–	1.54 ± 0.34	–	–
BE3C uPA down	1.78	–	–	1.3	1.78
4H MCP1 down	1.78	–	–	1.78	–
SAg SRB down	1.78	–	1.78	1.78	1.3
IMphg MIP1a up	1.78	–	–	–	1.3
